Data as given in the supplement of paper PMC10132981, “Formate overflow drives toxic folate trapping in MTHFD1 inhibited cancer cells” (Nature Metabolism, 2023).
± gives the standard deviation of the averaged measurements.

Tested on: SW620
Assay: cell viability relative to vehicle (resazurin, 96 h); higher = more viable
Procedure: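 SW620 WT or MTHFD2-/- cells were treated for 96 h with a compound dilution series (log10 M) in RPMI with normal or dialysed FBS. Viability was read by resazurin and is given as % of vehicle.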

With Cc1c(N2CCN(C)[C@@H](C)C2)ccc2c3c(c(=O)oc12)CN(C(=O)c1ccc(NS(C)(=O)=O)c(OC(F)(F)F)c1)CC3 the cell viability (log10 compound concentration (M): -5, supplement / serum: 50μM Hypoxanthine, base medium: RPMI + dialysed FBS) was 59.7 ± 4.3%, the cell viability (log10 compound concentration (M): -5, supplement / serum: 50μM Thymidine + 50μM Hypoxanthine, base medium: RPMI + dialysed FBS) was 79 ± 23% and the cell viability (log10 compound concentration (M): -5, supplement / serum: 50μMThymidine, base medium: RPMI + dialysed FBS) was 13 ± 4.2%. It also gave a cell viability (log10 compound concentration (M): -5, supplement / serum: No metabolite, base medium: RPMI + dialysed FBS) of 11 ± 1.3%, a cell viability (log10 compound concentration (M): -5, supplement / serum: RPMI + Dialyzed FBS + 50μM Hypoxanthine, base medium: RPMI-1640) of 59.7 ± 4.3% and a cell viability (log10 compound concentration (M): -5, supplement / serum: RPMI + Dialyzed FBS, base medium: RPMI-1640) of 11 ± 1.3%. The cell viability (log10 compound concentration (M): -5, supplement / serum: RPMI + Normal FBS, base medium: RPMI-1640) was 78.9 ± 37%, the cell viability (log10 compound concentration (M): -5.47712, supplement / serum: 50μM Hypoxanthine, base medium: RPMI + dialysed FBS) was 73.8 ± 15% and the cell viability (log10 compound concentration (M): -5.47712, supplement / serum: 50μM Thymidine + 50μM Hypoxanthine, base medium: RPMI + dialysed FBS) was 87.3 ± 20%. The cell viability (log10 compound concentration (M): -5.47712, supplement / serum: 50μMThymidine, base medium: RPMI + dialysed FBS) was 16.4 ± 0.45%, the cell viability (log10 compound concentration (M): -5.47712, supplement / serum: No metabolite, base medium: RPMI + dialysed FBS) was 16.8 ± 2.8% and the cell viability (log10 compound concentration (M): -5.47712, supplement / serum: RPMI + Dialyzed FBS + 50μM Hypoxanthine, base medium: RPMI-1640) was 73.8 ± 15%. It also gave a cell viability (log10 compound concentration (M): -5.47712, supplement / serum: RPMI + Dialyzed FBS, base medium: RPMI-1640) of 16.8 ± 2.8%, a cell viability (log10 compound concentration (M): -5.47712, supplement / serum: RPMI + Normal FBS, base medium: RPMI-1640) of 59.76 ± 0.29% and a cell viability (log10 compound concentration (M): -5.95424, supplement / serum: 50μM Hypoxanthine, base medium: RPMI + dialysed FBS) of 79.2 ± 26%. It also gave a cell viability (log10 compound concentration (M): -5.95424, supplement / serum: 50μM Thymidine + 50μM Hypoxanthine, base medium: RPMI + dialysed FBS) of 82.2 ± 17%, a cell viability (log10 compound concentration (M): -5.95424, supplement / serum: 50μMThymidine, base medium: RPMI + dialysed FBS) of 37.8 ± 3.8% and a cell viability (log10 compound concentration (M): -5.95424, supplement / serum: No metabolite, base medium: RPMI + dialysed FBS) of 37.9 ± 1.5%. For the same compound, the cell viability (log10 compound concentration (M): -5.95424, supplement / serum: RPMI + Dialyzed FBS + 50μM Hypoxanthine, base medium: RPMI-1640) was 79.2 ± 26%, the cell viability (log10 compound concentration (M): -5.95424, supplement / serum: RPMI + Dialyzed FBS, base medium: RPMI-1640) was 37.9 ± 1.5% and the cell viability (log10 compound concentration (M): -5.95424, supplement / serum: RPMI + Normal FBS, base medium: RPMI-1640) was 66.4 ± 4.6%. The cell viability (log10 compound concentration (M): -6.43136, supplement / serum: 50μM Hypoxanthine, base medium: RPMI + dialysed FBS) was 78.9 ± 3.7%, the cell viability (log10 compound concentration (M): -6.43136, supplement / serum: 50μM Thymidine + 50μM Hypoxanthine, base medium: RPMI + dialysed FBS) was 89.1 ± 13% and the cell viability (log10 compound concentration (M): -6.43136, supplement / serum: 50μMThymidine, base medium: RPMI + dialysed FBS) was 64.5 ± 0.92%. The cell viability (log10 compound concentration (M): -6.43136, supplement / serum: No metabolite, base medium: RPMI + dialysed FBS) was 67.9 ± 0.74%, the cell viability (log10 compound concentration (M): -6.43136, supplement / serum: RPMI + Dialyzed FBS + 50μM Hypoxanthine, base medium: RPMI-1640) was 78.9 ± 3.7% and the cell viability (log10 compound concentration (M): -6.43136, supplement / serum: RPMI + Dialyzed FBS, base medium: RPMI-1640) was 67.9 ± 0.74%. For the same compound, the cell viability (log10 compound concentration (M): -6.43136, supplement / serum: RPMI + Normal FBS, base medium: RPMI-1640) was 74.7 ± 1.9%, the cell viability (log10 compound concentration (M): -6.90849, supplement / serum: 50μM Hypoxanthine, base medium: RPMI + dialysed FBS) was 85.8 ± 9.7% and the cell viability (log10 compound concentration (M): -6.90849, supplement / serum: 50μM Thymidine + 50μM Hypoxanthine, base medium: RPMI + dialysed FBS) was 72.8 ± 5.9%. It also gave a cell viability (log10 compound concentration (M): -6.90849, supplement / serum: 50μMThymidine, base medium: RPMI + dialysed FBS) of 72.2 ± 4.4%, a cell viability (log10 compound concentration (M): -6.90849, supplement / serum: No metabolite, base medium: RPMI + dialysed FBS) of 84.5 ± 21% and a cell viability (log10 compound concentration (M): -6.90849, supplement / serum: RPMI + Dialyzed FBS + 50μM Hypoxanthine, base medium: RPMI-1640) of 85.8 ± 9.7%. The cell viability (log10 compound concentration (M): -6.90849, supplement / serum: RPMI + Dialyzed FBS, base medium: RPMI-1640) was 84.5 ± 21%, the cell viability (log10 compound concentration (M): -6.90849, supplement / serum: RPMI + Normal FBS, base medium: RPMI-1640) was 76.6 ± 3.5% and the cell viability (log10 compound concentration (M): -7.38561, supplement / serum: 50μM Hypoxanthine, base medium: RPMI + dialysed FBS) was 68.9 ± 5.7%. The cell viability (log10 compound concentration (M): -7.38561, supplement / serum: 50μM Thymidine + 50μM Hypoxanthine, base medium: RPMI + dialysed FBS) was 79.5 ± 3.7%, the cell viability (log10 compound concentration (M): -7.38561, supplement / serum: 50μMThymidine, base medium: RPMI + dialysed FBS) was 65.2 ± 1.4% and the cell viability (log10 compound concentration (M): -7.38561, supplement / serum: No metabolite, base medium: RPMI + dialysed FBS) was 66.8 ± 1.8%. It also gave a cell viability (log10 compound concentration (M): -7.38561, supplement / serum: RPMI + Dialyzed FBS + 50μM Hypoxanthine, base medium: RPMI-1640) of 68.9 ± 5.7%, a cell viability (log10 compound concentration (M): -7.38561, supplement / serum: RPMI + Dialyzed FBS, base medium: RPMI-1640) of 66.8 ± 1.8% and a cell viability (log10 compound concentration (M): -7.38561, supplement / serum: RPMI + Normal FBS, base medium: RPMI-1640) of 75 ± 9.2%. It also gave a cell viability (log10 compound concentration (M): -7.86273, supplement / serum: 50μM Hypoxanthine, base medium: RPMI + dialysed FBS) of 83.7 ± 13%, a cell viability (log10 compound concentration (M): -7.86273, supplement / serum: 50μM Thymidine + 50μM Hypoxanthine, base medium: RPMI + dialysed FBS) of 83.3 ± 4.1% and a cell viability (log10 compound concentration (M): -7.86273, supplement / serum: 50μMThymidine, base medium: RPMI + dialysed FBS) of 70.4 ± 4.7%. The cell viability (log10 compound concentration (M): -7.86273, supplement / serum: No metabolite, base medium: RPMI + dialysed FBS) was 75.1 ± 7.1%, the cell viability (log10 compound concentration (M): -7.86273, supplement / serum: RPMI + Dialyzed FBS + 50μM Hypoxanthine, base medium: RPMI-1640) was 83.7 ± 13% and the cell viability (log10 compound concentration (M): -7.86273, supplement / serum: RPMI + Dialyzed FBS, base medium: RPMI-1640) was 75.1 ± 7.1%. For the same compound, the cell viability (log10 compound concentration (M): -7.86273, supplement / serum: RPMI + Normal FBS, base medium: RPMI-1640) was 73 ± 4.8%, the cell viability (log10 compound concentration (M): -8.33985, supplement / serum: 50μM Hypoxanthine, base medium: RPMI + dialysed FBS) was 84.3 ± 9% and the cell viability (log10 compound concentration (M): -8.33985, supplement / serum: 50μM Thymidine + 50μM Hypoxanthine, base medium: RPMI + dialysed FBS) was 76.1 ± 1.6%. The cell viability (log10 compound concentration (M): -8.33985, supplement / serum: 50μMThymidine, base medium: RPMI + dialysed FBS) was 78.4 ± 12%, the cell viability (log10 compound concentration (M): -8.33985, supplement / serum: No metabolite, base medium: RPMI + dialysed FBS) was 86.2 ± 1.2% and the cell viability (log10 compound concentration (M): -8.33985, supplement / serum: RPMI + Dialyzed FBS + 50μM Hypoxanthine, base medium: RPMI-1640) was 84.3 ± 9%. The cell viability (log10 compound concentration (M): -8.33985, supplement / serum: RPMI + Dialyzed FBS, base medium: RPMI-1640) was 86.2 ± 1.2%, the cell viability (log10 compound concentration (M): -8.33985, supplement / serum: RPMI + Normal FBS, base medium: RPMI-1640) was 92 ± 1.2% and the cell viability (log10 compound concentration (M): -8.81697, supplement / serum: 50μM Hypoxanthine, base medium: RPMI + dialysed FBS) was 83.9 ± 23%. The cell viability (log10 compound concentration (M): -8.81697, supplement / serum: 50μM Thymidine + 50μM Hypoxanthine, base medium: RPMI + dialysed FBS) was 69.4 ± 6.6%, the cell viability (log10 compound concentration (M): -8.81697, supplement / serum: 50μMThymidine, base medium: RPMI + dialysed FBS) was 77.4 ± 7.6% and the cell viability (log10 compound concentration (M): -8.81697, supplement / serum: No metabolite, base medium: RPMI + dialysed FBS) was 70.8 ± 2.4%. It also gave a cell viability (log10 compound concentration (M): -8.81697, supplement / serum: RPMI + Dialyzed FBS + 50μM Hypoxanthine, base medium: RPMI-1640) of 83.9 ± 23%, a cell viability (log10 compound concentration (M): -8.81697, supplement / serum: RPMI + Dialyzed FBS, base medium: RPMI-1640) of 70.8 ± 2.4% and a cell viability (log10 compound concentration (M): -8.81697, supplement / serum: RPMI + Normal FBS, base medium: RPMI-1640) of 75.5 ± 4.8%. It also gave a cell viability (log10 compound concentration (M): -9.29409, supplement / serum: 50μM Hypoxanthine, base medium: RPMI + dialysed FBS) of 77.29 ± 0.34%, a cell viability (log10 compound concentration (M): -9.29409, supplement / serum: 50μM Thymidine + 50μM Hypoxanthine, base medium: RPMI + dialysed FBS) of 86.3 ± 14% and a cell viability (log10 compound concentration (M): -9.29409, supplement / serum: 50μMThymidine, base medium: RPMI + dialysed FBS) of 105 ± 6.9%. It also gave a cell viability (log10 compound concentration (M): -9.29409, supplement / serum: No metabolite, base medium: RPMI + dialysed FBS) of 84.9 ± 13%, a cell viability (log10 compound concentration (M): -9.29409, supplement / serum: RPMI + Dialyzed FBS + 50μM Hypoxanthine, base medium: RPMI-1640) of 77.29 ± 0.34% and a cell viability (log10 compound concentration (M): -9.29409, supplement / serum: RPMI + Dialyzed FBS, base medium: RPMI-1640) of 84.9 ± 13%. The cell viability (log10 compound concentration (M): -9.29409, supplement / serum: RPMI + Normal FBS, base medium: RPMI-1640) was 77 ± 11%, the cell viability (log10 compound concentration (M): -9.77121, supplement / serum: 50μM Hypoxanthine, base medium: RPMI + dialysed FBS) was 85.8 ± 28% and the cell viability (log10 compound concentration (M): -9.77121, supplement / serum: 50μM Thymidine + 50μM Hypoxanthine, base medium: RPMI + dialysed FBS) was 86.4 ± 9.4%. The cell viability (log10 compound concentration (M): -9.77121, supplement / serum: 50μMThymidine, base medium: RPMI + dialysed FBS) was 84.3 ± 26%, the cell viability (log10 compound concentration (M): -9.77121, supplement / serum: No metabolite, base medium: RPMI + dialysed FBS) was 77 ± 17% and the cell viability (log10 compound concentration (M): -9.77121, supplement / serum: RPMI + Dialyzed FBS + 50μM Hypoxanthine, base medium: RPMI-1640) was 85.8 ± 28%. It also gave a cell viability (log10 compound concentration (M): -9.77121, supplement / serum: RPMI + Dialyzed FBS, base medium: RPMI-1640) of 77 ± 17% and a cell viability (log10 compound concentration (M): -9.77121, supplement / serum: RPMI + Normal FBS, base medium: RPMI-1640) of 75.8 ± 12%.
